Experimental data from patent publication US6774139B1, “Dual function microbicides” (Parker Hughes Institute, priority 2000, dated 2004).
Like-named read-outs stand apart in the source and are kept apart here.

Legend:
[1] = partition coefficient n-octanol/water (Pa); format: physicochemical; settings: UV absorption
Protocol: Partition of the test compounds between n-octanol and water as a measure of their lipophilicity was determined by taking the UV absorption of each compound in n-octanol, water-saturated n- octanol (1:1), and n-octanol-saturated water (1:1). The UV absorption maxima were determined by selecting a wavelength with the maximum absorption peak in the water-saturated octanol layer and the corresponding peak in the octanol-saturated water. Three absorption spectra were obtained for each compound. The partion coefficient (Pa) was calculated as the ratio of the compound concentration present in the lipid phase to the compound concentration present in the aqueous phase.

[2] = target: T1, purified recombinant HIV-1 RT (Human immunodeficiency virus type 1 group M subtype B, UniProt P03366); assay: cell-free Quan-T-RT RT inhibition assay (scintillation proximity); format: biochemical; settings: for IC50: purified recombinant HIV-1 RT, cell-free
T1 construct: purified recombinant HIV-1 RT
Protocol: Each of the thirty one thiourea compounds was tested for RT inhibitory activity against purified recombinant HIV-1 RT using the cell-free Quan-T-RT system (Amersham Corp., Arlington Heights, Ill.), which utilizes the scintillation proximity assay principle.

human sperm = assay: sperm immobilizing activity (SIA) by CASA; format: cell-based; settings: for EC50: read-out: EC50 [SIA]
Protocol: To evaluate the effect of each of the 31 thiourea compounds on human sperm motility and kinematics, highly motile fractions of sperm were prepared from donor semen (n=8) by discontinuous (90-45%) gradient centrifugation using Enhance Plus medium (Conception Technologies, San Diego, Calif.) and the “swim-up” method. The swim-up method was used after density gradient centrifugation, washing, and resuspension of sperm in BWW-3% BSA. Pooled swim-up fraction was washed once prior to spermicidal assay.
All donor semen specimens were obtained after informed consent and in compliance with the guidelines of the Parker Hughes Institute Institutional Review Board. […] The stock solutions of thioureas were prepared in DMSO (100 mM) and diluted in assay medium to yield the desired concentrations (up to 1000 μM). Corresponding volume of DMSO (either 0.5% or 1%) was added to control tubes. After 3 hours of incubation at 37° C., the percentage of motile sperm was evaluated by CASA [53, 62-64]. The percent motilities were compared with sham-treated control suspensions of motile sperm.
For CASA, 5-μl of each sperm suspension was loaded into a 20-μm Microcell slide (Conception Technologies) in a counting chamber at 37° C. At least 5-8 fields per slide were scanned for analysis using a Hamilton Thome Integrated Visual Optical System (IVOS), version 10 instrument (Hamilton Thome Research Inc., Danvers, Mass.). Each field was recorded for 30 seconds. The computer calibrations were set at 30 frames at a frame rate of 30/second.
The sperm kinematics parameters that were determined included numbers of motile (MOT) and progressively (PRG) motile sperm; curvilinear velocity (VCL; a measure of the total distance traveled by a given sperm during the acquisition divided by the time elapsed); average path velocity (VAP; the spatially averaged path that eliminates the wobble of the sperm head), straight line velocity (VSL; the straight-line distance from beginning to end of track divided by time taken), beat cross frequency (BCF; frequency of sperm head crossing sperm average path), the amplitude of lateral head displacement (ALH; the mean width of sperm head oscillation), and the derivatives, straightness (STR=VSL/VAP×100) and linearity (LIN=VSL/VCL×100; departure of sperm track from a straight line). Data from each individual cell track were recorded and analyzed. At least 200 motile sperm were analyzed for each aliquot sampled.

HIV-1 strain HTLVIIIB = assay: p24 antigen production in HIV-1 infected PBMCs; format: cell-based
Protocol: The HTLVIIIB strain of HIV-1 was propagated in CCRF-CEM cells and the virus stocks obtained from cell-free supernatants of infected cells were titered using MT-2 cells. Cell-free supernatants were harvested and frozen in 1 ml aliquots at −70° C.
Stock solutions (10 mM) of thiourea compounds were prepared in dimethylsulfoxide (DMSO). Cells were cultured for 7 days in 96-well microtiter plates (100 μl/well; 2×10^6 cells/ml, triplicate wells) in the presence and absence of various concentrations (0.001 μM to 100 μM) of the thioureas. Cells from non-infected controls were handled in the same way except the virus was omitted from the preparation. Aliquots of culture supernatants were removed from the wells on the 7th day after infection for p24 antigen as previously described. The p24 enzyme immunoassay was the unmodified kinetic assay available commercially (Coulter Corporation/Immunotech, Inc., Westbrook, Me.). The assay uses a murine monoclonal antibody (mAb) to the HIV core protein coated onto microwell strips to which the antigen present in the test culture supernatant sample binds. The plates were read on a ELISA reader (Molecular Devices, Sunnyvale, Calif.) at 650 nm and p24 levels, expressed as ng/ml, were calculated against known standards supplied by Coulter/Imrunotech, Inc. Percent viral inhibition was calculated by comparing the p24 values for the test substance-treated infected cells with the p24 values for untreated infected cells (i.e., virus controls). […]

[3] = motile human sperm, 3 hours at 37° C., CASA
[4] = Human immunodeficiency virus 1, PBMC, HIV-1 HTLVIIIB infected human PBMC, p24 antigen on 7th day, read-out: IC50 [p24]
[5] = Human immunodeficiency virus 1, PBMC, HIV-1 HTLVIIIB infected human PBMC, values in nM, read-out: IC50[p24]
[6] = Human immunodeficiency virus 1, PBMC, read-out: IC50 [p24]

SMILES | Pa, Partition coefficient [1] | IC50 ([2]; IC50 [rRT]) | EC50 (human sperm; [3]) | IC50 (HIV-1 strain HTLVIIIB; [4]) | IC50 (HIV-1 strain HTLVIIIB; [5]) | other results
Fc1ccccc1CCNC(=S)Nc1ccc(C(F)(F)F)cn1 [HI 311] | 5.13 | 0.6 µM | > 500 µM | 90 nM |  | 
S=C(NCCC1=CCCCC1)Nc1ccccn1 [HI-541] |  | 5.3 µM | > 500 µM | 10 nM |  | 
S=C(NCCc1cccc(Cl)c1)Nc1ccc(Br)cn1 [HI 254] | 6.20 | 3.1 µM | > 500 µM | 10 nM |  | 
Fc1ccc(CCNC(=S)Nc2ccc(Br)cn2)cc1 [HI 242] | 10.7 | 6.4 µM | > 500 µM | 9 nM | 1 to 10 nM | 
Fc1cccc(CCNC(=S)Nc2ccc(Br)cn2)c1 [HI 241] |  | 0.7 µM | > 500 µM | < 1 nM | < 1 nM | 
S=C(NCCN1CCCCC1)Nc1ccc(Br)cn1 [HI 172] | 8.91 | 5.8 µM | > 500 µM | < 1 nM | < 1 nM | 
Fc1cccc(CCNC(=S)Nc2ccc(Br)cn2)c1 [HI 345] | 1.51 |  | > 500 µM |  |  | IC50 ([2]; read-out: IC50 [rRT]): 0.7 µM
Oc1ccc(CCNC(=S)Nc2ccc(Br)cn2)cc1 [HI 256, N-[2-(4-hydroxyphenethyl)]-N′-[2-(5-bromopyridyl)]thiourea] | 2.93 |  | 233 ± 68 µM |  |  | IC50 (HIV-1 strain HTLVIIIB; [6]): 3060 nM
FC(F)(F)c1ccc(NC(=S)NCCc2ccccn2)nc1 [HI 309] | 3.81 | 13.9 µM | > 500 µM |  |  | 
COc1ccc(OC)c(CCNC(=S)Nc2ccc(Br)cn2)c1 [HI 236] | 1.78 | 0.1 µM | > 500 µM | < 1 nM | < 1 nM | 
COc1ccc(CCNC(=S)Nc2ccc(Br)cn2)cc1OC [HI 232] | 22.7 | > 100 µM | > 500 µM |  |  | 
S=C(NCCc1ccccn1)Nc1ccc(Br)cn1 [Trovirdine, reference compound] | 5.3 |  |  |  |  | SIA / sperm motility (in words) (human sperm): lacked SIA; EC50 (human sperm; Homo sapiens, Sperm, 3 h): > 500 µM; IC50 (HIV-1 strain HTLVIIIB; [6]): 7 nM
Cc1ccc(CCNC(=S)Nc2ccc(Br)cn2)cc1 [HI 244] | 1.49 | 0.7 µM | > 500 µM | 30 nM |  | 
COc1cccc(CCNC(=S)Nc2ccc(Br)cn2)c1 [HI 239] | 1.07 | 0.4 µM | > 500 µM | 3 nM | 1 to 10 nM | 
COc1ccc(OC)c(CCNC(=S)Nc2ccc(C(F)(F)F)cn2)c1 [HI 310, N-[2-(5-dimethoxyphenethyl)]-N′-[2-(5-trifluoromethylpyridinyl)]-thiourea] | 1.00 |  | 276 ± 22 µM |  |  | IC50 ([2]; read-out: IC50 [rRT]): 2 µM; IC50 (HIV-1 strain HTLVIIIB; HIV-1 HTLVIIIB infected human PBMC, p24 antigen on 7th day, read-out: IC50 [p24]): 80 nM
S=C(NCCc1cccs1)Nc1ccc(Br)cn1 [HI 443] |  | 5.3 µM | > 500 µM |  |  | IC50 (HIV-1 strain HTLVIIIB; [6]): 30 nM
COc1ccccc1CCNC(=S)Nc1ccc(Br)cn1 [HI 237] | 3.79 | 1 µM | > 500 µM | 10 nM |  | 
S=C(NCCN1CCNCC1)Nc1ccc(Br)cn1 [HI 258] | 5.92 | > 100 µM | > 500 µM | 2 nM | 2 nM | 
S=C(NCCN1CCCC1)Nc1ccc(Br)cn1 [HI 230] | 7.91 | > 100 µM | > 500 µM | 1000 nM |  | 
FC(F)(F)c1ccc(NC(=S)NCCC2=CCCCC2)nc1 [HI 347, N-[2-(5-trifluoromethylpyridinyl)]-N′-[2-(1-cyclohexenyl)ethyl]-thiourea] | 11.5 |  | 131 ± 4 µM |  |  | effective 100% inhibitory concentration (EC100), sperm motility (human sperm; FIG. 1, CASA): 0.25 mM; SIA, fold less active than halo functionalized derivatives (human sperm; versus PHI-346 and PHI-445): two to three-fold less active; IC50 (HIV-1 strain HTLVIIIB; [6]): 79 nM; anti-HIV activity, fold less active than halo functionalized derivatives (HIV-1 strain HTLVIIIB; versus PHI-346 and PHI-445): 26 fold
S=C(NCCc1ccc(Br)cc1)Nc1ccc(Br)cn1 [HI 243] | 4.16 | 0.9 µM | > 500 µM | 70 nM |  | 
FC(F)(F)c1ccc(NC(=S)NCCc2ccccc2)nc1 [HI 308, N-[2-(phenethyl)]-N′-[2-(5-trifluoromethylpyridinyl)]-thiourea] |  | > 100 µM | > 500 µM |  |  | anti-HIV activity (in words) [2]: inactive
CC1(C)C2CCC(CNC(=S)Nc3ccc(Br)cn3)C1C2 (stereo not drawn) [HI 444] | 2.1 |  | > 500 µM |  |  | anti-HIV activity (in words) [2]: loss of anti-HIV activity; IC50 ([2]; read-out: IC50 [rRT]): > 100 µM
S=C(NCCc1ccccc1)Nc1ccc(Br)cn1 [HI 275] | 3.50 | 1.25 µM | 361 ± 31 µM | 4 nM | 4 nM | 
FC(F)(F)c1ccc(NC(=S)NCCN2CCCCC2)nc1 [HI 344] | 10.27 | > 100 µM | 131 µM |  |  | 
S=C(NCCc1ccc(Cl)cc1)Nc1ccc(Br)cn1 [HI 255] | 2.23 | 0.4 to 6.4 µM | 160 µM | 1 nM | 1 to 10 nM | 
